The values below come from patent US20230017045A1, “PYRIDINE AND PYRIMIDINE CARBOXYLATE HERBICIDES AND METHODS OF USE THEREOF” (Dow AgroSciences LLC, priority 2017, published 2023).

The experiment concerns test plant species. Kind of experiment: Post-emergent herbicidal activity test (greenhouse, foliar spray, visual growth reduction). As to conditions: post-emergence, 336 h, 140 g ai/ha, 14 days after application. In kind it is in vivo. In outline: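 Visual scoring 14 d after treatment (0 = no injury, 100 = complete control) against nontreated and solvent-blank plants gave percent growth reduction. Foliar application used a track sprayer delivering 187 L/ha to seedlings at first or second true leaf stage, grown at 23–29 °C day, ~15 h photoperiod.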

The mark [1] stands for this setting: ALOMY: blackgrass (Alopecurus myosuroides), read-out: Visual Growth Reduction (%) 14 Days After Application, ALOMY.
[2] abbreviates: AMARE: redroot pigweed (Amaranthus retroflexus), read-out: Visual Growth Reduction (%) 14 Days After Application, AMARE.
Where [3] appears, read: AVEFA: wild oat (Avena fatua), read-out: Visual Growth Reduction (%) 14 Days After Application, AVEFA.
Where [4] appears, read: CHEAL: lambsquarters (Chenopodium album), read-out: Visual Growth Reduction (%) 14 Days After Application, CHEAL.
Setting [5] is: CIRAR: canada thistle (Cirsium arvense), read-out: Visual Growth Reduction (%) 14 Days After Application, CIRAR.
[6] abbreviates: CYPES: yellow nutsedge (Cyperus esculentus), read-out: Visual Growth Reduction (%) 14 Days After Application, CYPES.
Where [7] appears, read: DIGSA: crabgrass (Digitaria sanguinalis), read-out: Visual Growth Reduction (%) 14 Days After Application, DIGSA.
Where [8] appears, read: ECHCG: barnyardgrass (Echinochloa crus-galli), read-out: Visual Growth Reduction (%) 14 Days After Application, ECHCG.
[9] abbreviates: IPOHE: ivy-leaf morning glory (Ipomoea hederacea), read-out: Visual Growth Reduction (%) 14 Days After Application, IPOHE.
Where [10] appears, read: KCHSC: kochia (Bassia scoparia), read-out: Visual Growth Reduction (%) 14 Days After Application, KCHSC.
The mark [11] stands for this setting: ORYSA: rice (Oryza sativa), read-out: Visual Growth Reduction (%) 14 Days After Application, ORYSA.
Where [12] appears, read: SETFA: giant foxtail (Setaria faberi), read-out: Visual Growth Reduction (%) 14 Days After Application, SETFA.
[13] abbreviates: SORVU: grain sorghum (Sorghum vulgare), read-out: Visual Growth Reduction (%) 14 Days After Application, SORVU.
Setting [14] is: STEME: common chickweed (Stellaria media), read-out: Visual Growth Reduction (%) 14 Days After Application, STEME.
[15] abbreviates: TRZAS: wheat, spring (Triticum aestivum), read-out: Visual Growth Reduction (%) 14 Days After Application, TRZAS.

Structures are written as SMILES. Like-named read-outs stand apart in the source and are kept apart here.

For the molecule `COC(=O)c1nc(-c2ccc(SC(F)(F)F)cc2Cl)c(Cl)cc1Cl` [F130, Methyl 3,5-dichloro-6-(2-chloro-4-((trifluoromethyl)thio)phenyl) picolinate], the pest or weed control at 140 g/ha lay in the range of 0 to 29% under setting [1]; 85 to 94% under setting [2]; 0 to 29% under setting [3]; 75 to 84% under setting [4]; 75 to 84% under setting [5]; 0 to 29% under setting [6]. Moreover, the pest or weed control at 140 g/ha lay in the range of 60 to 74% under setting [7]; 0 to 29% under setting [8]; 30 to 44% under setting [9]; 60 to 74% under setting [10]; 0 to 29% under setting [11]; 60 to 74% under setting [12]. In addition, the pest or weed control at 140 g/ha under setting [13] lay in the range of 30 to 44%, the pest or weed control at 140 g/ha under setting [14] lay in the range of 0 to 29% and the pest or weed control at 140 g/ha under setting [15] fell in the range of 0 to 29%.

As to `O=C(O)c1nc(-c2ccc(SC(F)(F)F)cc2Cl)c(F)cc1Cl` [F131, 3-Chloro-6-(2-chloro-4-((trifluoromethyl)thio)phenyl)-5-fluoropicolinic acid], the pest or weed control at 140 g/ha fell in the range of 45 to 59% under setting [1]; 95 to 100% under setting [2]; 75 to 84% under setting [3]; 95 to 100% under setting [4]; 95 to 100% under setting [5]; 0 to 29% under setting [6]. For the same molecule, the pest or weed control at 140 g/ha runs as follows: under setting [7], 95 to 100%; under setting [8], 60 to 74%; under setting [9], 95 to 100%; under setting [10], 95 to 100%; under setting [11], 30 to 44%; under setting [12], 85 to 94%. Moreover, the pest or weed control at 140 g/ha under setting [13] fell in the range of 85 to 94%, the pest or weed control at 140 g/ha under setting [14] is 0 to 29% and the pest or weed control at 140 g/ha under setting [15] lay within 60 to 74%.

With `O=C(O)c1nc(-c2ccc(C(F)(F)F)cc2Cl)ccc1F` [F132, 6-(2-Chloro-4-(trifluoromethyl)phenyl)-3-fluoropicolinic acid], the pest or weed control at 140 g/ha reads like this: under setting [1], 0 to 29%; under setting [2], 95 to 100%; under setting [3], 0 to 29%; under setting [4], 95 to 100%; under setting [5], 85 to 94%; under setting [6], 0 to 29%. Moreover, the pest or weed control at 140 g/ha reads like this: under setting [7], 75 to 84%; under setting [8], 60 to 74%; under setting [9], 95 to 100%; under setting [10], 75 to 84%; under setting [11], 0 to 29%; under setting [12], 75 to 84%. The pest or weed control at 140 g/ha reads like this: under setting [13], 85 to 94%; under setting [14], 0 to 29%; under setting [15], 0 to 29%.

Consider `O=C(O)c1nc(-c2ccnc(Cl)c2Cl)ccc1Cl` [F133, 2′,3′,5-Trichloro-[2,4′-bipyridine]-6-carboxylic acid], for which the pest or weed control at 140 g/ha under setting [1] is 0 to 29%; the pest or weed control at 140 g/ha under setting [2] was in the range of 0 to 29%; the pest or weed control at 140 g/ha under setting [3] fell in the range of 0 to 29%; the pest or weed control at 140 g/ha under setting [4] lay in the range of 75 to 84%; the pest or weed control at 140 g/ha under setting [5] is 0 to 29%; the pest or weed control at 140 g/ha under setting [6] was 0 to 29%. The pest or weed control at 140 g/ha by setting is: under setting [7], 45 to 59%; under setting [8], 0 to 29%; under setting [9], 45 to 59%; under setting [10], 0 to 29%; under setting [11], 0 to 29%; under setting [12], 0 to 29%. Moreover, the pest or weed control at 140 g/ha is, setting by setting: under setting [13], 60 to 74%; under setting [14], 0 to 29%; under setting [15], 0 to 29%.

Regarding `COC(=O)c1nc(-c2ccc(SC(F)(F)F)cc2Cl)c(F)cc1Cl` [F135, Methyl 3-chloro-6-(2-chloro-4-((trifluoromethyl)thio)phenyl)-5 fluoropicolinate], the pest or weed control at 140 g/ha under setting [1] is 30 to 44%; the pest or weed control at 140 g/ha under setting [2] lay within 95 to 100%; the pest or weed control at 140 g/ha under setting [3] fell in the range of 60 to 74%; the pest or weed control at 140 g/ha under setting [4] was in the range of 85 to 94%; the pest or weed control at 140 g/ha under setting [5] is 95 to 100%; the pest or weed control at 140 g/ha under setting [6] was 0 to 29%. The pest or weed control at 140 g/ha by setting is: under setting [7], 95 to 100%; under setting [8], 45 to 59%; under setting [9], 95 to 100%; under setting [10], 85 to 94%; under setting [11], 0 to 29%; under setting [12], 85 to 94%. The pest or weed control at 140 g/ha under setting [13] was in the range of 95 to 100%, the pest or weed control at 140 g/ha under setting [14] was 0 to 29% and the pest or weed control at 140 g/ha under setting [15] fell in the range of 45 to 59%.

Take `COC(=O)c1nc(-c2ccc(C(F)(F)F)c(C)c2Cl)ccc1Cl` [F136, methyl 3-chloro-6-(2-chloro-3-methyl-4-(trifluoromethyl)phenyl)picolinate]: the pest or weed control at 140 g/ha is, setting by setting: under setting [1], 0 to 29%; under setting [2], 95 to 100%; under setting [3], 0 to 29%; under setting [4], 75 to 84%; under setting [5], 0 to 29%; under setting [6], 0 to 29%. The pest or weed control at 140 g/ha reads like this: under setting [7], 60 to 74%; under setting [8], 0 to 29%; under setting [9], 95 to 100%; under setting [10], 45 to 59%; under setting [11], 0 to 29%; under setting [12], 0 to 29%. Further, the pest or weed control at 140 g/ha is, setting by setting: under setting [13], 75 to 84%; under setting [14], 0 to 29%; under setting [15], 0 to 29%.

For the molecule `C=Cc1c(C(F)(F)F)ccc(-c2ccc(Cl)c(C(=O)OC)n2)c1Cl` [F137, methyl 3-chloro-6-(2-chloro-4-(trifluoromethyl)-3-vinylphenyl)picolinate], the pest or weed control at 140 g/ha was 0 to 29% under setting [1]; 60 to 74% under setting [2]; 0 to 29% under setting [3]; 75 to 84% under setting [4]; 0 to 29% under setting [5]; 0 to 29% under setting [6]. Further, the pest or weed control at 140 g/ha lay within 30 to 44% under setting [7]; 0 to 29% under setting [8]; 95 to 100% under setting [9]; 0 to 29% under setting [10]; 0 to 29% under setting [11]; 0 to 29% under setting [12]. Moreover, the pest or weed control at 140 g/ha is 60 to 74% under setting [13], 0 to 29% under setting [14] and 0 to 29% under setting [15].

Turning to `COC(=O)c1nc(-c2c(Cl)cc(C(F)(F)F)cc2S(C)(=O)=O)ccc1Cl` [F138, methyl 3-chloro-6-(2-chloro-6-(methylsulfonyl)-4-(trifluoromethyl)phenyl)picolinate], the pest or weed control at 140 g/ha was 0 to 29% under setting [1]; 85 to 94% under setting [2]; 0 to 29% under setting [3]; 60 to 74% under setting [4]; 60 to 74% under setting [5]; 0 to 29% under setting [6]. Further, the pest or weed control at 140 g/ha lay in the range of 0 to 29% under setting [7]; 0 to 29% under setting [8]; 75 to 84% under setting [9]; 60 to 74% under setting [10]; 0 to 29% under setting [11]; 0 to 29% under setting [12]. The pest or weed control at 140 g/ha by setting is: under setting [13], 0 to 29%; under setting [14], 0 to 29%; under setting [15], 0 to 29%.
